{
  "source": "patent US20160200769A1",
  "about": "“Compound, Transitmycin, Effective Against Bacterial and Viral Pathogens” (INDIAN COUNCIL OF MEDICAL RESEARCH, priority 2013, published 2016)",
  "key": {"[1]": {"tested_on": "dormant tubercle bacilli grown under hypoxic condition", "test": "Activity against latent TB bacilli, Wayne's dormant model", "format": "cell-based, M. tuberculosis"}, "M. tuberculosis H37Rv": {"tested_on": "M. tuberculosis H37Rv", "test": "microbe, parasite or virus in culture", "format": "cell-based", "conditions": "Mycobacterium tuberculosis"}, "[2]": {"tested_on": "biofilm of M. tuberculosis isolates (SHRE sensitive, MDR and XDR)", "test": "Inhibitory activity against MTB biofilm", "format": "cell-based"}, "3T3 cells": {"tested_on": "3T3 cells", "test": "Cytotoxicity, MTT assay", "format": "cell-based", "set-up": "unit of the concentration uncertain", "conditions": "for Average % Viability: 3T3 cells, MTT", "protocol": "Cytotoxicity of the compound is measured by adopting MTT assay (Mosmann, 1983) as follows:\n(i) preparing, the sample by inoculating 3T3 cells in 5×10^4 concentrations in each well of 96 well microtiter plates with in Dulbecco's modified Eagles medium (DMEM) containing 10% FBS, 100 U/ml Penicillin 100 µg/ml Streptomycin;\n(ii) incubating for a period of 2 days at a temperature of 37° C. in 5% CO2 atmosphere (Astec Japan); […]\n(iv) Discarding the growth medium in the plates and washing the wells with phosphate buffer saline (PBS);\n(v) Adding MTT in growth medium at a final concentration of 0.5 mg/ml and incubating for 4 hours;\n(vi) solublizing the insoluble formazan crystals' with 0.04N HCl in isopropylalcohol and measuring the absorption on a Spectramax Plus384 spectrophotometer (Molecular Devices, Calif., USA) at 570 nm.\nFor each of the samples evaluated, the test is performed in triplicate. The control cells are treated with PBS. Overnight experiment is done with DMSO alone as a control."}, "[3]": {"test": "Solubility of purified compound in solvents", "format": "physicochemical", "protocol": "Solubility of purified compound is tested by adding the purified compound in 100 jxl of solvents such as methanol, chloroform, dichloromethane, diethyl ether, ethyl acetate and n-hexane. Melting point of the purified compound is tested using Tempo instrument and is determined as 240-242° C."}, "M. tuberculosis (XDR)": {"tested_on": "M. tuberculosis (XDR)", "test": "microbe, parasite or virus in culture", "format": "cell-based", "conditions": "Mycobacterium tuberculosis"}, "[4]": {"tested_on": "M. tuberculosis SHRE sensitive", "test": "microbe, parasite or virus in culture", "format": "cell-based", "conditions": "Mycobacterium tuberculosis"}, "Indie-Cl (Clade C virus)": {"tested_on": "Indie-Cl (Clade C virus)", "test": "Anti-HIV activity of purified compound, p24 antigen in infected PBMC", "format": "cell-based, HIV-1", "conditions": "day 7, 0 μg/ml control 406", "protocol": "(§1) Virus production by transfection of 293T cells: 293T cells are plated at a concentration of 1×10^6 cells/ml in a 100 mm culture dish and grown at 37° C. in a CO2 incubator for 24 hours. Cells are transfected with 20 μg of HIV IIIB plasmid DNA using the mammalian cell transfection kit (Millipore). The culture supernatant is collected at 48 hours post transfection, clarified by centrifugation and stored in liquid nitrogen.\n(§2) Titration of virus stock: Seven serial four-fold dilutions of virus stock, ranging from 1:[…] are titrated in triplicate in a 96-well flat bottomed tissue culture plate containing 200,000 cells/well (PBMC stimulated with PHA for 72 hours). After 7 days of culture at 37° C. in a CO2 incubator, the titration assay is terminated and the culture supernatants are tested for HIV-1 p24 antigen. The TCID50 (tissue culture infection dose50) is calculated employing the Spearman-Kaber method.\n(§3) Testing for anti-HIV activity of compound: HIV IIIB is used as a representative Glade B virus and Indie-Cl as a representative Glade C virus. Healthy donor PBMC (Peripheral blood mononuclear cells) activated through PHA (Phyto heme agglutinin) stimulation for 72 hours are incubated with 100TCID50 of the virus per 1×10^6 cells for 2 hours at 37° C. The cells are washed twice to get rid of the unadsorbed virus and plated at a concentration of 200,000 cells/well in a 96-well tissue culture plate. Varying concentrations of the compound are added to triplicate wells (concentrations tested were 0.001 μg/ml, 001 μg/ml, 0.1 μg/ml, 1.0 μg/ml, 5.0 μg/ml and 10.0 tg/ml). Control cultures are set up without addition of the compound. Cultures are maintained for 7 days at 37° C. in a CO2 incubator. On day 7, culture supernatants are tested for HIV-1 p24 antigen.\n(§4) Measurement of HIV-1 p24 antigen: HIV-1 p24 antigen production is measured as an indirect measure of viral replication in the culture supernatants using the Alliance HIV-1 p24 ELISA kit (Perkin Elmer, USA).\n(§5) Virus growth is .determined, by measuring p24 concentrations in culture supernatants."}, "HIV IIIB (Clade B virus)": {"tested_on": "HIV IIIB (Clade B virus)", "test": "Anti-HIV activity of purified compound, p24 antigen in infected PBMC", "format": "cell-based, HIV-1", "conditions": "day 7, 0 μg/ml control 2394", "protocol": "as §1, §2, §3, §4, §5"}, "[5]": {"tested_on": "Escherichia coli (NCIM2931)", "test": "MIC by micro dilution broth assay with resazurin", "format": "cell-based", "conditions": "18 hours at 37° C.", "protocol": "(§6) The minimum inhibitory concentration (MIC) of the compound of formula (I) is determined for other bacterial pathogens Staphylococcus aureus (NCIM5021), Pseudomonas aeruginosa (NClM5029) and Escherichia coli (NCIM2931). The minimum inhibitory concentration (MIC) is determined by micro dilution broth assay method with modifications using resazurin as an indicator as follows:\n(§7) (i) dissolving the compound of formula (I) in absolute ethanol to a concentration of 10 mg/ml;\n(§8) (ii) Serially diluting the compound and adding to successive wells in a 96 well microtiter plate and incubating with the bacterial pathogens for 18 hours at 37° C.;\n(§9) (iii) maintaining the growth and sterility controls during the experiment;\n(§10) (iv) adding 10 μl of 0.01% resazurin solution and incubating for 2 hours;\n(§11) (v) visually assessing the color change.\n(§12) Blue colour indicates inhibition of growth, indicating MIC."}, "[6]": {"tested_on": "Pseudomonas aeruginosa (NCIM5029)", "test": "MIC by micro dilution broth assay with resazurin", "format": "cell-based", "conditions": "18 hours at 37° C.", "protocol": "as §6, §7, §8, §9, §10, §11, §12"}, "[7]": {"tested_on": "Staphylococcus aureus (NCIM5021)", "test": "MIC by micro dilution broth assay with resazurin", "format": "cell-based", "conditions": "18 hours at 37° C.", "protocol": "as §6, §7, §8, §9, §10, §11, §12"}},
  "note": "*1 amine or outer side, *2 acyl side, *3 side chain or, on linkers, in order; H or OH if unused. Where a SMILES comes first, the peptide text is derived from it. Bridges are numbered along the chain shown (N, C = ends). Roman numbers before positions name the chains, in order. [ ]: non-standard residue; d: D form. Actinocin(1to9) = Cc1c2oc3c(C)ccc(C(=O)[*:2])c3nc-2c(C(=O)[*:1])c(N)c1=O; Pro(4-oxo) = O=C1CN[C@H](C(=O)O)C1; NMeV = CN[C@H](C(=O)O)C(C)C; Sar = CNCC(=O)O",
  "data": [
    {"smiles": "NNC(=O)c1ccncc1", "note": "[INH, reference compound]", "values": [
      {"measurement": "Effect of standard drug against latent tubercle bacilli", "setting": "[1]; negative control", "value": "resistant"}
    ]},
    {"smiles": "Cc1c2oc3c(C)ccc(C(=O)N[C@@H]4C(=O)N[C@@H](C(C)C)C(=O)N5CCC[C@H]5C(=O)N(C)CC(=O)N(C)[C@@H](C(C)C)C(=O)O[C@@H]4C)c3nc-2c(C(=O)N[C@@H]2C(=O)N[C@@H](C(C)C)C(=O)N3CC(=O)C[C@H]3C(=O)N(C)CC(=O)N(C)[C@@H](C(C)C)C(=O)O[C@@H]2C)c(N)c1=O", "note": "[compound of formula (I), Transitmycin] (I: TV[Pro(4-oxo)][Sar][NMeV] / II: TVP[Sar][NMeV]; ester I:1-I:C, II:1-II:C; linker I:N-II:N via Actinocin(1to9))", "values": [
      {"measurement": "MIC", "setting": "M. tuberculosis H37Rv", "value": "< 1", "unit": "µg/mL"},
      {"measurement": "Biofilm formation", "setting": "[2]; 100 μg/ml, 37° C., 5 weeks", "value": "no, biofilm formation"},
      {"measurement": "Viable colonies (CFU) after treatment of wells", "setting": "[2]; at the end of 2 months, […]", "value": "no viable colonies"},
      {"measurement": "Average % Viability", "setting": "3T3 cells; 10 (unit uncertain)", "value": 93.00, "unit": "%"},
      {"measurement": "Average % Viability", "setting": "3T3 cells; 25 (unit uncertain)", "value": 86.01, "unit": "%"},
      {"measurement": "Average % Viability", "setting": "3T3 cells; 50 (unit uncertain)", "value": 73.88, "unit": "%"},
      {"measurement": "Average % Viability", "setting": "3T3 cells; 100 (unit uncertain)", "value": 66.13, "unit": "%"},
      {"measurement": "Cytotoxic activity", "setting": "3T3 cells; even at 100 (unit uncertain) concentration", "value": "very poor cytotoxic activity"},
      {"measurement": "CFU in M. tuberculosis cultures compared with CFU without the compound", "setting": "[1]", "value": "Reduction in the CFU"},
      {"measurement": "Solubility", "setting": "[3]; Chloroform, Dichloromethane, Ethyl acetate, Methanol, Ethanol, Acetonitrile, DMSO, water", "value": "Souble"},
      {"measurement": "Solubility", "setting": "[3]; Hexane", "value": "Insoluble"},
      {"measurement": "MIC", "setting": "M. tuberculosis (XDR)", "value": 6.25, "unit": "µg/mL"},
      {"measurement": "MIC", "setting": "[4]", "value": 1.5, "unit": "µg/mL"},
      {"measurement": "P24 antigen", "setting": "Indie-Cl (Clade C virus); compound 0.001 μg/ml", "value": 390, "unit": "pg/mL"},
      {"measurement": "P24 antigen", "setting": "Indie-Cl (Clade C virus); compound 0.01 μg/ml", "value": 310, "unit": "pg/mL"},
      {"measurement": "P24 antigen", "setting": "Indie-Cl (Clade C virus); compound 0.1 μg/ml", "value": 344, "unit": "pg/mL"},
      {"measurement": "P24 antigen", "setting": "Indie-Cl (Clade C virus); compound 1 μg/ml", "value": 302, "unit": "pg/mL"},
      {"measurement": "P24 antigen", "setting": "Indie-Cl (Clade C virus); compound 5 μg/ml", "value": 295, "unit": "pg/mL"},
      {"measurement": "P24 antigen", "setting": "Indie-Cl (Clade C virus); compound 10 μg/ml", "value": 296, "unit": "pg/mL"},
      {"measurement": "P24 antigen", "setting": "HIV IIIB (Clade B virus); compound 0.001 μg/ml", "value": 1603, "unit": "pg/mL"},
      {"measurement": "P24 antigen", "setting": "HIV IIIB (Clade B virus); compound 0.01 μg/ml", "value": 337, "unit": "pg/mL"},
      {"measurement": "P24 antigen", "setting": "HIV IIIB (Clade B virus); compound 0.1 μg/ml", "value": 163, "unit": "pg/mL"},
      {"measurement": "P24 antigen", "setting": "HIV IIIB (Clade B virus); compound 1 μg/ml", "value": 144, "unit": "pg/mL"},
      {"measurement": "P24 antigen", "setting": "HIV IIIB (Clade B virus); compound 5 μg/ml", "value": 147, "unit": "pg/mL"},
      {"measurement": "P24 antigen", "setting": "HIV IIIB (Clade B virus); compound 10 μg/ml", "value": 163, "unit": "pg/mL"},
      {"measurement": "MIC", "setting": "[5]", "value": 17.4, "unit": "µg/mL"},
      {"measurement": "MIC", "setting": "[6]", "value": 17.4, "unit": "µg/mL"},
      {"measurement": "MIC", "setting": "[7]", "value": 139, "unit": "µg/mL"}
    ]}
  ]
}
